The values that follow come from patent publication US20230277568A1, “METHOD OF TREATMENT FOR […] PSILOCIN INFUSION” (Eleusis Therapeutics US, Inc., priority 2020, published 2023).

Entries after “also recorded” stand apart in the source; their conditions may differ.

The test system of one assay is WKY rats. The experiment in a line: Forced swim test in rat model of depression. It is filed as in vivo. The following applies: FST 21 days after injection. How it is done:
A rat model of depression was used to assess the antidepressant effect of psilocin alone or in combination with lorazepam. WKY rats were divided into 3 groups (n=8 animals per group) and treated with (i) 1 mg/kg of psilocin injected as a bolus dose into the tail vein (PSI); (ii) 1.8 mg/kg of lorazepam injected 30 i.p. minutes prior to a 1 mg/kg tail vein injection of psilocin (P+L); or (iii) saline (SAL; as a control group). The dose of lorazepam was chosen to be a moderate/low non-sedating but anxiolytic dose in rats after consultation with an expert in the field of benzodiazepine's effects in rats.
After injection treatment, rats were maintained in their home cage for three weeks (21 days) prior to testing by forced swim test (FST) as described in Hibicke et al., ACS Chem. Neurosci. 2020, 11, 6, 864-871.
Forced Swim Test methodology: During a pre-exposure, rats were placed into a plastic cylindrical tank (114 cm×30.5 cm) that contained 30 cm of water at 28-30° C. The water depth was such that the rats could not support themselves by touching the bottom of the tank with their hind paws, and their tails could not touch the bottom of the tank while keeping their noses above water. After a 15 min swim, the rats were removed, dried with paper towels, and replaced in their home cages. Fresh water was used for each animal. For the testing, a video camera was mounted to the side of the tank, and the rats were exposed to a 5 min swim under the conditions described above and then removed, dried with paper towels, and returned to their home cages. The 5 min swim was recorded for later scoring for immobility, swimming, and climbing. FST scoring was performed by a trained scorer. Immobility was defined as no active attempts to escape while maintaining a floating posture in which the rats make only the movements necessary to keep their heads above water. Swimming was defined as actively attempting escape with motions directed outward against the wall of the cylinder. Climbing was defined as actively attempting escape with motions directed upward against the wall of the cylinder.

The next assay has as its target 5-HT2A receptor (Homo sapiens, UniProt P28223). The note with it: background statement; cited from earlier work.
The mark [1] stands for this setting: 1.8 mg/kg lorazepam i.p. 30 minutes prior to 1 mg/kg i.v. psilocin.

5-HT2A receptor, sequence (P28223 whole entry): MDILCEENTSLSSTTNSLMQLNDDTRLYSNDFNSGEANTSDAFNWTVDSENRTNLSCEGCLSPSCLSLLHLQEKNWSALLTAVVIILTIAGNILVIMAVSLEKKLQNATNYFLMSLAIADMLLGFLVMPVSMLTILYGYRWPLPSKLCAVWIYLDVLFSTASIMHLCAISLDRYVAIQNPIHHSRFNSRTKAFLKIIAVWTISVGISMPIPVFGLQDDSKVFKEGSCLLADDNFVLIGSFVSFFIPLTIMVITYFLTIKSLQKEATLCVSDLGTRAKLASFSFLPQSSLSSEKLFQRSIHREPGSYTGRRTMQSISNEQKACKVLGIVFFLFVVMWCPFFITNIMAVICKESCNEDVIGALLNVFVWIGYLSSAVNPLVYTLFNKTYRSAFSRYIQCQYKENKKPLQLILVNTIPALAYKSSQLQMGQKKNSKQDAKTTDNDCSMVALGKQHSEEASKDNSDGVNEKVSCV

For `O=C1Nc2ccc(Cl)cc2C(c2ccccc2Cl)=NC1O` (centres unmarked) [Lorazepam], the “effect of lorazepam pretreatment on the effects of psilocin, immobility measure” value in the assay with WKY rats (setting [1]) was “slight but significant effect to blunt the effects of psilocin”; in the assay with WKY rats (1.8 mg/kg lorazepam i.p. 30 minutes prior to 1 mg/kg i.v. psilocin, listed as lorazepam), “slight, but significant effect”. In addition, the “effect of lorazepam pretreatment on the effects of psilocin, swimming behavior” value with WKY rats (setting [1]) is “no significant effect”.
As to `CN(C)CCc1c[nH]c2cccc(O)c12` [psilocin, 4-hydroxy-N,N-dimethyltrypamine], the “antidepressant-like behaviors in forced swim test” value in the assay on WKY rats (1 mg/kg psilocin single i.v. bolus (tail vein), 1 mg/kg) was “as efficacious in producing long-lasting antidepressant-like behaviors in this model as a single i.p. administration of psilocybin of the same dose; also recorded: as efficacious in producing long-lasting antidepressant-like behaviors in our model as a single i.p. administration of psilocybin of the same dose”. Further, the “affinity for the 5-HT2A receptor” value at 5-HT2A receptor was “high affinity”.
